Columns and labels:
Acetylcholinesterase [1] = target: T1, Acetylcholinesterase (Homo sapiens, UniProt P22303); assay: Inhibition of Acetylcholinesterase from human red blood cells
Acetylcholinesterase [2] = target: T2, Acetylcholinesterase (Bos taurus, UniProt P23795); assay: Inhibition of Acetylcholinesterase activity of calf forebrain
T2 sequence (P23795 whole entry): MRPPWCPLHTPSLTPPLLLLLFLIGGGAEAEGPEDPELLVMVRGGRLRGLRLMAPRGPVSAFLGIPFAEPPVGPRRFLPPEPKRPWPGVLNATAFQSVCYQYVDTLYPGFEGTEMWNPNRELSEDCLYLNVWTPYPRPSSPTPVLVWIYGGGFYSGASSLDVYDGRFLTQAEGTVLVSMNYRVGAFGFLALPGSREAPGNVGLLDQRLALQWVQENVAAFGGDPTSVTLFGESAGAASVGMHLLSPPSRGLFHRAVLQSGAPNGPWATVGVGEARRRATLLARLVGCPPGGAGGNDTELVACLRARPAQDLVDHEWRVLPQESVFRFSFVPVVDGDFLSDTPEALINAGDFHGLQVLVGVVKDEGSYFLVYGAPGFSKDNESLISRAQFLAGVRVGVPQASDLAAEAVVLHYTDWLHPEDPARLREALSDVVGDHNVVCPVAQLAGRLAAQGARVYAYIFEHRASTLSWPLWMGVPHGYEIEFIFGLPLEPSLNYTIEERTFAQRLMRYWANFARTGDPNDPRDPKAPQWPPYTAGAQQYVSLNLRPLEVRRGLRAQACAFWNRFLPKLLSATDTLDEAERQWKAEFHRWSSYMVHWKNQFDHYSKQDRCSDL

Acetylcholinesterase [3] = target: T1, Acetylcholinesterase; assay: Binding affinity against Acetylcholinesterase of human RBC
Acetylcholinesterase [4] = target: T2, Acetylcholinesterase; assay: Binding affinity against Acetylcholinesterase of purified calf forebrain (CFB)
Acetylcholinesterase [5] = target: T1, Acetylcholinesterase; assay: In vitro inhibition of Acetylcholinesterase activity from human red blood cells was evaluated using 1 mM of ATC as substrate; NI=Not inhibitory
Acetylcholinesterase [6] = target: T2, Acetylcholinesterase; assay: In vitro inhibition of Acetylcholinesterase activity from calf fore brain was evaluated using 1 mM of ATC as substrate; NI=Not inhibitory

T1 sequence (P22303 whole entry): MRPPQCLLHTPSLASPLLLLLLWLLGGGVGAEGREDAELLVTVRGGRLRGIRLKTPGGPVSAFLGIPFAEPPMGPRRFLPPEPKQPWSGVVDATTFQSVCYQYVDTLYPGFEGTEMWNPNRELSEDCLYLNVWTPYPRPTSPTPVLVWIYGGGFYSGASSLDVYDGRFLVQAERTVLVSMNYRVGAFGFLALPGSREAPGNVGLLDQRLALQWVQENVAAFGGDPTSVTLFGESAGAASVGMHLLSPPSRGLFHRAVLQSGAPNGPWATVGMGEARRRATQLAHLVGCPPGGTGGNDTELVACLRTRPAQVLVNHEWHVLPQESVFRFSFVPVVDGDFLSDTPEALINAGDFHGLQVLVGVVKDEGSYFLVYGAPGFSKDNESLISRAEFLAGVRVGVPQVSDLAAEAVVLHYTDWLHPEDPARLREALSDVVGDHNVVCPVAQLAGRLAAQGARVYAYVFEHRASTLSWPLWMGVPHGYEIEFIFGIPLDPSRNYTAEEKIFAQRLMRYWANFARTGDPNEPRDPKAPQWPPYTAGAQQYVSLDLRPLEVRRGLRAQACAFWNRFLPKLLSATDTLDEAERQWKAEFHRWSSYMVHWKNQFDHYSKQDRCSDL

## CCC(C)CSC(=O)OCC[N+](C)(C)C.[Cl-] (stereo not given)
Acetylcholinesterase [1]
  IC50: 1000 µM
Acetylcholinesterase [2]
  IC50: 800 µM

## CCCCCCSC(=O)OCC[N+](C)(C)C
Acetylcholinesterase [1]
  IC50: 80 µM
Acetylcholinesterase [2]
  IC50: 20 µM

## CCCCSC(=O)OCC[N+](C)(C)C
Acetylcholinesterase [1]
  IC50: 500 µM
Acetylcholinesterase [2]
  IC50: 100 µM

## CCCCCCCSC(=O)OCC[N+](C)(C)C
Acetylcholinesterase [3]
  Ki: 20 µM
Acetylcholinesterase [1]
  IC50: 50 µM
Acetylcholinesterase [4]
  Ki: 10 µM
Acetylcholinesterase [2]
  IC50: 10 µM

## CC(C)(C)SC(=O)OCC[N+](C)(C)C.[Cl-]
Acetylcholinesterase [5]
  IC50: No inhibition
Acetylcholinesterase [6]
  IC50: No inhibition

## CCSC(=O)OCC[N+](C)(C)C
Acetylcholinesterase [1]
  IC50: > 10000 µM
Acetylcholinesterase [2]
  IC50: > 10000 µM

## CCc1ccccc1SC(=O)OCC[N+](C)(C)C.[Cl-]
Acetylcholinesterase [1]
  IC50: 50 µM
Acetylcholinesterase [2]
  IC50: 10 µM

## CCCCCSC(=O)OCC[N+](C)(C)C
Acetylcholinesterase [1]
  IC50: 0.8 µM
Acetylcholinesterase [4]
  Ki: 1 µM
Acetylcholinesterase [2]
  IC50: 1 µM

## CCC(C)(C)SC(=O)OCC[N+](C)(C)C.[Cl-]
Acetylcholinesterase [1]
  IC50: 40 µM
Acetylcholinesterase [2]
  IC50: 10 µM

## CCc1ccc(SC(=O)OCC[N+](C)(C)C)cc1
Acetylcholinesterase [1]
  IC50: 500 µM
Acetylcholinesterase [2]
  IC50: 100 µM

## CCCSC(=O)OCC[N+](C)(C)C
Acetylcholinesterase [1]
  IC50: > 5000 µM
Acetylcholinesterase [2]
  IC50: > 1000 µM

## CC(C)SC(=O)OCC[N+](C)(C)C.[Cl-]
Acetylcholinesterase [5]
  IC50: No inhibition
Acetylcholinesterase [6]
  IC50: No inhibition

## C[N+](C)(C)CCOC(=O)Sc1ccccc1.[Cl-]
Acetylcholinesterase [1]
  IC50: 1000 µM
Acetylcholinesterase [2]
  IC50: 100 µM

## CC(C)CCSC(=O)OCC[N+](C)(C)C
Acetylcholinesterase [1]
  IC50: 50 µM
Acetylcholinesterase [2]
  IC50: 10 µM

## CCN(CC)CCNC(=O)c1ccc(N)cc1 [PROCAINAMIDE]
Acetylcholinesterase [3]
  Ki: 1 µM
Acetylcholinesterase [1]
  IC50: 1 µM
Acetylcholinesterase [4]
  Ki: 1 µM
Acetylcholinesterase [2]
  IC50: 0.5 µM
